This assay deals with MCH receptors. Put plainly: MCH receptor activity class (method not given). The following applies: class 1-3 by percent of control at 10^-7 M or IC50.

As for `CN(C)c1ccnc(N[C@H]2CC[C@@H](CNC(=O)c3c(F)cccc3F)CC2)n1` [compound 447], the class is on record as 3 (Class 3 The value of percent of control at 10^−7 M was more than 60% or the value of IC50 was more than 200 nM.).
In the case of `CN(C)c1ccnc(N[C@H]2CC[C@@H](CNC(=O)c3c(F)cccc3C(F)(F)F)CC2)n1` [compound 448] it was 3 (Class 3 The value of percent of control at 10^−7 M was more than 60% or the value of IC50 was more than 200 nM.).
In the case of `Cc1cc(C)c(C(=O)NC[C@H]2CC[C@@H](Nc3nccc(N(C)C)n3)CC2)c(C)c1` [compound 449, N-[(cis-4-{[4-(dimethylamino)pyrimidin-2-yl]amino}cyclohexyl)methyl]-2,4,6-trimethylbenzamide] it was 2 (Class 2: The value of percent of control at 10^−7 M was from 40% to 60% or the value of IC′50 was from 50 nM to 200 nM.).
With `CN(C)c1ccnc(N[C@H]2CC[C@@H](CNC(=O)c3c(F)cccc3Cl)CC2)n1` [compound 450] the figure was 3 (Class 3 The value of percent of control at 10^−7 M was more than 60% or the value of IC50 was more than 200 nM.); with `CN(C)c1ccnc(N[C@H]2CC[C@@H](CNC(=O)c3c(Cl)cc(Cl)cc3Cl)CC2)n1` [compound 451], 2 (Class 2: The value of percent of control at 10^−7 M was from 40% to 60% or the value of IC′50 was from 50 nM to 200 nM.).
Take `CN(C)c1ccnc(N[C@H]2CC[C@@H](CNC(=O)/C=C/c3ccccc3Cl)CC2)n1` [compound 452]: the class was 2 (Class 2: The value of percent of control at 10^−7 M was from 40% to 60% or the value of IC′50 was from 50 nM to 200 nM.).
For the compound `Cc1ccc(Cl)c(C(=O)NC[C@H]2CC[C@@H](Nc3nccc(N(C)C)n3)CC2)c1F` [compound 453], the class is on record as 3 (Class 3 The value of percent of control at 10^−7 M was more than 60% or the value of IC50 was more than 200 nM.).
With `CN(C)c1ccnc(N[C@H]2CC[C@@H](CNC(=O)c3c(F)ccc(F)c3Cl)CC2)n1` [compound 454] the figure was 3 (Class 3 The value of percent of control at 10^−7 M was more than 60% or the value of IC50 was more than 200 nM.); with `Cc1cccc(C(=O)NC[C@H]2CC[C@@H](Nc3nccc(N(C)C)n3)CC2)c1C` [compound 455], 3 (Class 3 The value of percent of control at 10^−7 M was more than 60% or the value of IC50 was more than 200 nM.).
In the case of `COc1cccc(C(=O)N[C@H]2CC[C@@H](Nc3nc4c(c(N(C)C)n3)CCCC4)CC2)c1` [compound 456] it was 1 (Class 1: The value of percent of control at 10^−7 M was less than 40% or the value of IC50 was less than 50 nM.); in that of `CN(C)c1nc(N[C@H]2CC[C@@H](NC(=O)c3cccc(Br)c3)CC2)nc2c1CCCC2` [compound 457], 1 (Class 1: The value of percent of control at 10^−7 M was less than 40% or the value of IC50 was less than 50 nM.).
In the case of `CN(C)c1nc(N[C@H]2CC[C@@H](NC(=O)c3ccc(Br)cc3)CC2)nc2c1CCCC2` [compound 458] it was 2 (Class 2: The value of percent of control at 10^−7 M was from 40% to 60% or the value of IC′50 was from 50 nM to 200 nM.).
Turning to `CN(C)c1nc(N[C@H]2CC[C@@H](NC(=O)c3ccc4nonc4c3)CC2)nc2c1CCCC2` [compound 459], the class is listed as 1 (Class 1: The value of percent of control at 10^−7 M was less than 40% or the value of IC50 was less than 50 nM.).
For the compound `CN(C)c1nc(N[C@H]2CC[C@@H](NC(=O)c3cccc(Cl)c3)CC2)nc2c1CCCC2` [compound 460], the class is given as 1 (Class 1: The value of percent of control at 10^−7 M was less than 40% or the value of IC50 was less than 50 nM.).
For `CN(C)c1nc(N[C@H]2CC[C@@H](NC(=O)c3ccc(Cl)cc3)CC2)nc2c1CCCC2` [compound 461], the class is recorded as 1 (Class 1: The value of percent of control at 10^−7 M was less than 40% or the value of IC50 was less than 50 nM.).
As for `CN(C)c1nc(N[C@H]2CC[C@@H](NC(=O)/C=C/c3ccccc3)CC2)nc2c1CCCC2` [compound 462], the class is on record as 3 (Class 3 The value of percent of control at 10^−7 M was more than 60% or the value of IC50 was more than 200 nM.).
In the case of `CN(C)c1nc(N[C@H]2CC[C@@H](NC(=O)c3ccc(Cl)c([N+](=O)[O-])c3)CC2)nc2c1CCCC2` [compound 463] it was 1 (Class 1: The value of percent of control at 10^−7 M was less than 40% or the value of IC50 was less than 50 nM.).
In the case of `CN(C)c1nc(N[C@H]2CC[C@@H](NC(=O)Cc3ccc(Cl)cc3)CC2)nc2c1CCCC2` [compound 464, 2-(4-chlorophenyl)-N-(cis-4-{[4-(dimethylamino)-5,6,7,8-tetrahydroquinazolin-2-yl]amino}cyclohexyl)acetainide] it was 1 (Class 1: The value of percent of control at 10^−7 M was less than 40% or the value of IC50 was less than 50 nM.); in that of `CN(C)c1nc(N[C@H]2CC[C@@H](NC(=O)c3cccc(C#N)c3)CC2)nc2c1CCCC2` [compound 465], 1 (Class 1: The value of percent of control at 10^−7 M was less than 40% or the value of IC50 was less than 50 nM.).
Regarding `CN(C)c1nc(N[C@H]2CC[C@@H](NC(=O)c3cc(Cl)cc(Cl)c3)CC2)nc2c1CCCC2` [compound 466, 3,5-dichloro-N-(cis-4-{[4-(dimethylamino)-5,6,7,8-tetrahydroquinazolin-2-yl]amino}cyclohexyl)benzamide], the class is on record as 1 (Class 1: The value of percent of control at 10^−7 M was less than 40% or the value of IC50 was less than 50 nM.).
For the compound `CN(C)c1nc(N[C@H]2CC[C@@H](NC(=O)c3ccc(Cl)c(Cl)c3)CC2)nc2c1CCCC2` [compound 467, 3,4-dichloro-N-(cis-4-{[4-(dimethylamino)-5,6,7,8-tetrahydroquinazolin-2-yl]amino}cyclohexyl)benzamide], the class was 1 (Class 1: The value of percent of control at 10^−7 M was less than 40% or the value of IC50 was less than 50 nM.).
In the case of `CN(C)c1nc(N[C@H]2CC[C@@H](NC(=O)C(c3ccccc3)c3ccccc3)CC2)nc2c1CCCC2` [compound 468] it was 1 (Class 1: The value of percent of control at 10^−7 M was less than 40% or the value of IC50 was less than 50 nM.); in that of `CN(C)c1nc(N[C@H]2CC[C@@H](NC(=O)c3ccc(F)c(F)c3)CC2)nc2c1CCCC2` [compound 469], 1 (Class 1: The value of percent of control at 10^−7 M was less than 40% or the value of IC50 was less than 50 nM.); in that of `CN(C)c1nc(N[C@H]2CC[C@@H](NC(=O)c3cc(F)cc(F)c3)CC2)nc2c1CCCC2` [compound 470], 1 (Class 1: The value of percent of control at 10^−7 M was less than 40% or the value of IC50 was less than 50 nM.).
In the case of `COc1ccc(OC)c(CC(=O)N[C@H]2CC[C@@H](Nc3nc4c(c(N(C)C)n3)CCCC4)CC2)c1` [compound 471] it was 3 (Class 3 The value of percent of control at 10^−7 M was more than 60% or the value of IC50 was more than 200 nM.); in that of `CCSc1ncccc1C(=O)N[C@H]1CC[C@@H](Nc2nc3c(c(N(C)C)n2)CCCC3)CC1` [compound 472], 3 (Class 3 The value of percent of control at 10^−7 M was more than 60% or the value of IC50 was more than 200 nM.).
With `CN(C)c1nc(N[C@H]2CC[C@@H](NC(=O)c3ccc(F)cc3)CC2)nc2c1CCCC2` [compound 473] the figure was 1 (Class 1: The value of percent of control at 10^−7 M was less than 40% or the value of IC50 was less than 50 nM.).
As for `CN(C)c1nc(N[C@H]2CC[C@@H](NC(=O)c3cc(F)cc(C(F)(F)F)c3)CC2)nc2c1CCCC2` [compound 474], the class is listed as 1 (Class 1: The value of percent of control at 10^−7 M was less than 40% or the value of IC50 was less than 50 nM.).
With `CN(C)c1nc(N[C@H]2CC[C@@H](NC(=O)c3cc(F)c(Cl)cc3Cl)CC2)nc2c1CCCC2` [compound 475] the figure was 3 (Class 3 The value of percent of control at 10^−7 M was more than 60% or the value of IC50 was more than 200 nM.).
In the case of `CCCCCC(=O)N[C@H]1CC[C@@H](Nc2nc3c(c(N(C)C)n2)CCCC3)CC1` [compound 476] it was 2 (Class 2: The value of percent of control at 10^−7 M was from 40% to 60% or the value of IC′50 was from 50 nM to 200 nM.).
In the case of `CN(C)c1nc(N[C@H]2CC[C@@H](NC(=O)c3ccc(I)cc3)CC2)nc2c1CCCC2` [compound 477] it was 3 (Class 3 The value of percent of control at 10^−7 M was more than 60% or the value of IC50 was more than 200 nM.); in that of `CSc1ncccc1C(=O)N[C@H]1CC[C@@H](Nc2nc3c(c(N(C)C)n2)CCCC3)CC1` [compound 478], 3 (Class 3 The value of percent of control at 10^−7 M was more than 60% or the value of IC50 was more than 200 nM.).
Regarding `Cc1ccc(C(=O)N[C@H]2CC[C@@H](Nc3nc4c(c(N(C)C)n3)CCCC4)CC2)cc1[N+](=O)[O-]` [compound 479], the class was 1 (Class 1: The value of percent of control at 10^−7 M was less than 40% or the value of IC50 was less than 50 nM.).
In the case of `CN(C)c1nc(N[C@H]2CC[C@@H](NC(=O)c3cccc([N+](=O)[O-])c3)CC2)nc2c1CCCC2` [compound 480] it was 1 (Class 1: The value of percent of control at 10^−7 M was less than 40% or the value of IC50 was less than 50 nM.).
With `CN(C)c1nc(N[C@H]2CC[C@@H](NC(=O)Cc3ccccc3)CC2)nc2c1CCCC2` [compound 481] the figure was 3 (Class 3 The value of percent of control at 10^−7 M was more than 60% or the value of IC50 was more than 200 nM.); with `CN(C)c1nc(N[C@H]2CC[C@@H](NC(=O)C3C[C@H]3c3ccccc3)CC2)nc2c1CCCC2` (stereo partly drawn) [compound 482, (2R)-N-(cis-4-{[4-(dimethylamino)-5,6,7,8-tetrahydroquinazolin-2-yl]amino}cyclohexyl)-2-phenylcyclopropanecarboxamide], 2 (Class 2: The value of percent of control at 10^−7 M was from 40% to 60% or the value of IC′50 was from 50 nM to 200 nM.); with `CN(C)c1nc(N[C@H]2CC[C@@H](NC(=O)c3ccc4c(c3)OCO4)CC2)nc2c1CCCC2` [compound 483], 3 (Class 3 The value of percent of control at 10^−7 M was more than 60% or the value of IC50 was more than 200 nM.).
In the case of `Cc1cccc(C(=O)N[C@H]2CC[C@@H](Nc3nc4c(c(N(C)C)n3)CCCC4)CC2)c1` [compound 486] it was 1 (Class 1: The value of percent of control at 10^−7 M was less than 40% or the value of IC50 was less than 50 nM.).

These data come from patent US20050197350A1, “Novel quinoline, tetrahydroquinazoline, and pyrimidine derivatives and methods of treatment related to the use thereof” (TAISHO PHARMACEUTICAL CO., LTD., priority 2003, published 2005).
